Assay [1] has as its target DNMT1 (Homo sapiens, UniProt P26358). Kind of assay: DNMT1 biochemical activity, breaklight assay and/or SPA assay.
In assay [2] the test system is erythroid progenitor cells (EPCs). Put plainly: Fetal hemoglobin (HbF) ELISA in day 7 erythroid progenitor cells.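 Note: for fetal hemoglobin induction normalized to vehicle-treated cells.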 Format: cell-based, human. The settings on record: Homo sapiens, Erythroid progenitor cell, HbF ELISA, day 7 EPCs, 5 days; read-out: EPC ELISA (pEC50 category) (converted). In short, it runs like this:
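HbF induction was read by anti-HbF sandwich ELISA (HRP/TMB, OD450) on lysates and normalized to vehicle-treated cells. Cells were day 7 erythroid progenitors derived from human bone marrow CD34+ cells, seeded at 1,000/well with 3 U/mL rhEPO. Compound was given for 5 days at 37 °C at final concentrations […].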

The mark [3] stands for this setting: binned activity in either the breaklight or the SPA assay, read-out: DNMT1 BioChemical (pIC50 category) (converted).
[4] abbreviates: binned activity in either the breaklight or the SPA assay.
The mark [5] stands for this setting: breaklight assay and/or SPA assay, repeated experimental runs, read-out: average pIC50 against DNMT1 (converted).

Structures are written as SMILES. Where a name gives a salt, the structure may show the parent alone. Read-outs that look alike come from different tables or passages of the source.

Chain of DNMT1 (P26358 whole entry, looked up): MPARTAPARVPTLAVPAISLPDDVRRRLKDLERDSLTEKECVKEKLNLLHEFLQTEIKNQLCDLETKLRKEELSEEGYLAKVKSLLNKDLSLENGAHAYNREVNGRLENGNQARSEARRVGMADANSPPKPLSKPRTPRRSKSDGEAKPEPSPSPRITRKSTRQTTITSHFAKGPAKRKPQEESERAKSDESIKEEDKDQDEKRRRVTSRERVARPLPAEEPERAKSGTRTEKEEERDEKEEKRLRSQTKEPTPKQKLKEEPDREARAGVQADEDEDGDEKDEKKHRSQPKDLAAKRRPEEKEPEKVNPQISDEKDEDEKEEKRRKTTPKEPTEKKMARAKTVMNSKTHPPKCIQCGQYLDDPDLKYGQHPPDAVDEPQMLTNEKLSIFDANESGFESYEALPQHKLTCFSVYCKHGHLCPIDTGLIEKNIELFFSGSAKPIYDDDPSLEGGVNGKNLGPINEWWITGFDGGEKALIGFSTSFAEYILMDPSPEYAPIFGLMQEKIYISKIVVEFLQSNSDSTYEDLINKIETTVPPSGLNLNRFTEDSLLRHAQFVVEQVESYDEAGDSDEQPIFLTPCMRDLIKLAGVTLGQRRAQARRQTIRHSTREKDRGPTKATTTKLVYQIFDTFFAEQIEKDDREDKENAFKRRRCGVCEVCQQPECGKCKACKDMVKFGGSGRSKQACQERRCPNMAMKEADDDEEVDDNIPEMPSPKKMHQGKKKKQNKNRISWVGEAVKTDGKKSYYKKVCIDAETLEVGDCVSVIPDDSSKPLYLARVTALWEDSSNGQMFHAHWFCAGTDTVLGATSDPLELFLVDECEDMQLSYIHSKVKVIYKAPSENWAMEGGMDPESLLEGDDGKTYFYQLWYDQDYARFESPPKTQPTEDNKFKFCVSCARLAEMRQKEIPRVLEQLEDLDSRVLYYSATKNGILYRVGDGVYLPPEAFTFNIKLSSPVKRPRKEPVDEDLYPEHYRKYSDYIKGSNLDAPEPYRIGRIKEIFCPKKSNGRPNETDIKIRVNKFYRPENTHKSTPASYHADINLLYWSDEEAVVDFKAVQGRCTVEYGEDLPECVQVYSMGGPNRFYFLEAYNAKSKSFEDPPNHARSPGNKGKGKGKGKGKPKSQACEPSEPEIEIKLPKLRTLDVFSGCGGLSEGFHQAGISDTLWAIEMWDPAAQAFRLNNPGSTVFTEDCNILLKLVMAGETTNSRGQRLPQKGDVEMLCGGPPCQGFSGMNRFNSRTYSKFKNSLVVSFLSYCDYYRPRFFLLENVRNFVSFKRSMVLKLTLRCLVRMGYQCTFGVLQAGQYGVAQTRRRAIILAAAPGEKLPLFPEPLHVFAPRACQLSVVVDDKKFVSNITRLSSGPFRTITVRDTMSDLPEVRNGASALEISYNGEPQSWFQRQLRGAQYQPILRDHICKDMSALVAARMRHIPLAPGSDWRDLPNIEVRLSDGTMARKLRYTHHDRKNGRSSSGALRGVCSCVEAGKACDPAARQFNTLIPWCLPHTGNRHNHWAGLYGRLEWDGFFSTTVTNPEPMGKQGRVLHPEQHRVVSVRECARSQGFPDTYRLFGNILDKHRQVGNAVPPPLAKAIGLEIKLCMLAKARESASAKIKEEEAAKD

For the molecule `CCc1c(C#N)c(SCc2ccc(CNC(C)=O)cc2)nc(SC(C(N)=O)c2ccccc2)c1C#N` (stereo not drawn) [Example 336, 2-(6-(4-(Acetamidomethyl)benzylthio)-3,5-dicyano-4-ethylpyridin-2-ylthio)-2-phenylacetamide], the IC50 in assay [1] (setting [3]) was 316 to 1000 nM. The EC50 in assay [2] is 1000 to 31600 nM.
The corresponding values for `CCc1c(C)c(N2CCNCC2)nc(SC(C(N)=O)c2ccccc2)c1C#N` (stereo not drawn) [Example 293, 2-((3-Cyano-4-ethyl-5-methyl-6-(piperazin-1-yl)pyridin-2-yl)thio)-2-phenylacetamide] are 316 to 1000 nM and above 31600 nM.
On to `N#Cc1c(SC(C(N)=O)c2ccccc2)nc(N2CCC(NCC(N)=O)CC2)c(C#N)c1C1CC1` (stereo not drawn) [Example 667, 2-((6-(4-((2-amino-2-oxoethyl)amino)piperidin-1-yl)-3,5-dicyano-4-cyclopropylpyridin-2-yl)thio)-2-phenylacetamide], for which, in assay [1] (setting [3]), the IC50 is below 316 nM. In assay [2], the EC50 was 1000 to 31600 nM.
Consider `CCc1c(C#N)c(SCc2ccc(NC(C)=O)c(F)c2)nc(N2CCCN(C)CC2)c1C#N` [Example 362], for which, in assay [1] (setting [3]), the IC50 was 316 to 1000 nM. The EC50 in assay [2] was above 31600 nM.
The corresponding values for `N#Cc1c(SC(C(N)=O)c2ccccc2)nc(N2CC(NC(=O)C3(N)COC3)C2)c(C#N)c1C1CC1` (stereo not drawn) [Example 680, 3-amino-N-(1-(6-((2-amino-2-oxo-1-phenylethyl)thio)-3,5-dicyano-4-cyclopropylpyridin-2-yl)azetidin-3-yl)oxetane-3-carboxamide] are below 316 nM and 1000 to 31600 nM.
Turning to `CCc1c(C#N)c(SC(C(N)=O)c2ccccc2)nc(N2CCN(C(=O)C3(N)COC3)CC2)c1C#N` (stereo not drawn) [Example 139, 2-((6-(4-(3-Aminooxetane-3-carbonyl)piperazin-1-yl)-3,5-dicyano-4-ethylpyridin-2-yl)thio)-2-phenylacetamide, Formic Acid Salt], the “DNMT1 BioChemical (pIC50 category)” value in assay [1] (setting [4]) is listed as “D (Category D: ≥6.5)”. The EC50 in assay [2] was 316 to 1000 nM.
Take `CCc1c(C#N)c(SC(C(N)=O)c2ccccc2)nc(N2CCC(C(N)=O)C2)c1C#N` (stereo not drawn) [Example 388, 1-(6-((2-Amino-2-oxo-1-phenylethyl)thio)-3,5-dicyano-4-ethylpyridin-2-yl)pyrrolidine-3-carboxamide]: the IC50 in assay [1] (setting [3]) is 316 to 1000 nM. For the same molecule, in assay [2], the EC50 was 1000 to 31600 nM.
With `CCc1c(C#N)c(SCc2ccc(CO)cc2)nc(N2CCCN(C)CC2)c1C#N` [Example 85, 4-Ethyl-2-((4-(hydroxymethyl)benzyl)thio)-6-(4-methyl-1,4-diazepan-1-yl)pyridine-3,5-dicarbonitrile], the IC50 in assay [1] (setting [3]) and in assay [1] (setting [5]) was 316 to 1000 nM throughout. The EC50 in assay [2] was 1000 to 31600 nM.
`CSc1c(C#N)c(SCc2ccc(CNC(C)=O)cc2)nc(N2CCCN(C)CC2)c1C#N` [Example 101, N-(4-(((3,5-Dicyano-6-(4-methyl-1,4-diazepan-1-yl)-4-(methylthio)pyridin-2-yl)thio)methyl)benzyl)acetamide]: the “DNMT1 BioChemical (pIC50 category)” value in assay [1] (setting [4]) is “D (Category D: ≥6.5)”. Moreover, the EC50 in assay [2] was 316 to 1000 nM.
Turning to `CCc1c(C#N)c(SC(C(N)=O)c2ccccc2)nc(N2CCC(N3[C@@H](C)CC[C@@H]3C)CC2)c1C#N` (stereo partly drawn) [Example 462, 2-((3,5-dicyano-6-(4-((2S,5S)-2,5-dimethylpyrrolidin-1-yl)piperidin-1-yl)-4-ethylpyridin-2-yl)thio)-2-phenylacetamide], in assay [1] (setting [4]), the “DNMT1 BioChemical (pIC50 category)” value is reported as “D (Category D: ≥6.5)”. In assay [2], the EC50 was below 316 nM.
Consider `CCc1c(C#N)c(SC(C(N)=O)c2ccccc2)nc(N(C)C2CC(N)C2)c1C#N` (stereo not drawn) [Example 498, 2-((6-((3-aminocyclobutyl)(methyl)amino)-3,5-dicyano-4-ethylpyridin-2-yl)thio)-2-phenylacetamide], for which, in assay [1] (setting [4]), the “DNMT1 BioChemical (pIC50 category)” value is “D (Category D: ≥6.5)”. In assay [2], the EC50 was 316 to 1000 nM.
Take `CCc1c(C#N)c(S[C@@H](C(N)=O)c2ccccc2)nc(N2CCO[C@H](CN)C2)c1C#N` [Example 561, (R)-2-((6-((R)-2-(aminomethyl)morpholino)-3,5-dicyano-4-ethylpyridin-2-yl)thio)-2-phenylacetamide, Hydrochloride]: the “DNMT1 BioChemical (pIC50 category)” value in assay [1] (setting [4]) is “D (Category D: ≥6.5)”. In addition, the EC50 in assay [2] is below 316 nM.
The corresponding values for `CCc1c(C#N)c(SC(C(N)=O)c2ccccc2)nc(N2CCO[C@H](CNCC(C)(C)C)C2)c1C#N` (stereo partly drawn) [Example 555] are “D (Category D: ≥6.5)” and below 316 nM.
As for `CCc1c(C#N)c(SC(C(N)=O)c2ccccc2)nc(N(C)CCN2CCCCCC2)c1C#N` (stereo not drawn) [Example 477, 2-((6-((2-(azepan-1-yl)ethyl)(methyl)amino)-3,5-dicyano-4-ethylpyridin-2-yl)thio)-2-phenylacetamide], the “DNMT1 BioChemical (pIC50 category)” value in assay [1] (setting [4]) is given as “D (Category D: ≥6.5)”. Further, the “average pIC50 against DNMT1” value in assay [1] (breaklight assay and/or SPA assay, repeated experimental runs) is on record as above 6.5. For the same molecule, the IC50 in assay [1] (setting [5]) was 100 nM. Besides, the EC50 in assay [2] is below 316 nM.
`CCc1c(C#N)c(S[C@@H](C(N)=O)c2ccccc2)nc(N2CC[C@](F)(CN)C2)c1C#N` [Example 638, (R)-2-((6-((S)-3-(aminomethyl)-3-fluoropyrrolidin-1-yl)-3,5-dicyano-4-ethylpyridin-2-yl)thio)-2-phenylacetamide]: in assay [1] (setting [4]), the “DNMT1 BioChemical (pIC50 category)” value is “D (Category D: ≥6.5)”. Besides, the EC50 in assay [2] was 316 to 1000 nM.
Consider `CCc1c(C#N)c(SCc2ccc(CNC(C)=O)cc2)nc(N2CCC(O)C2)c1C#N` (stereo not drawn) [Example 331, N-(4-(((3,5-Dicyano-4-ethyl-6-(3-hydroxypyrrolidin-1-yl)pyridin-2-yl)thio)methyl)benzyl)acetamide], for which the IC50 in assay [1] (setting [3]) was 316 to 1000 nM. For the same molecule, the EC50 in assay [2] was above 31600 nM.
With `CCc1c(C#N)c(SC(C(N)=O)c2ccccc2)nc(N(C)CCN2CC[C@H](N)C2)c1C#N` (stereo partly drawn) [Example 535, 2-((6-((2-((S)-3-aminopyrrolidin-1-yl)ethyl)(methyl)amino)-3,5-dicyano-4-ethylpyridin-2-yl)thio)-2-phenylacetamide], the “DNMT1 BioChemical (pIC50 category)” value in assay [1] (setting [4]) is recorded as “D (Category D: ≥6.5)”. Further, in assay [2], the EC50 was 316 to 1000 nM.
As to `CCc1c(C#N)c(SCc2cnn(CC(N)=O)c2)nc(N(C)C)c1C#N` [Example 285, 2-(4-(((3,5-Dicyano-6-(dimethylamino)-4-ethylpyridin-2-yl)thio)methyl)-1H-pyrazol-1-yl)acetamide], in assay [1] (setting [3]), the IC50 is 316 to 1000 nM. In assay [2], the EC50 is 1000 to 31600 nM.
`CCc1c(C#N)c(SCc2ccc(CNC(C)=O)cc2)nc(N2CCC(N3CCCC3)CC2)c1C#N` [Example 66, N-(4-((3,5-Dicyano-4-ethyl-6-(4-(pyrrolidin-1-yl)piperidin-1-yl)pyridin-2-ylthio)methyl)benzyl)acetamide trifluoroacetate]: in assay [1] (setting [4]), the “DNMT1 BioChemical (pIC50 category)” value is recorded as “D (Category D: ≥6.5)”. Moreover, in assay [2], the EC50 is below 316 nM.
For the molecule `CCc1c(C#N)c(SC(C(N)=O)c2ccccc2)nc(N2Cc3cn[nH]c3C2)c1C#N` (stereo not drawn) [Example 236, 2-((3,5-Dicyano-4-ethyl-6-(pyrrolo[3,4-c]pyrazol-5(1H,4H,6H)-yl)pyridin-2-yl)thio)-2-phenylacetamide], the “DNMT1 BioChemical (pIC50 category)” value in assay [1] (setting [4]) is “D (Category D: ≥6.5)”. Moreover, in assay [2], the EC50 is above 31600 nM.
With `CCc1c(C#N)c(SC(C(N)=O)c2ccccc2)nc(N2CCS(=O)(=O)CC2)c1C#N` (stereo not drawn) [Example 166, 2-((3,5-Dicyano-6-(1,1-dioxidothiomorpholino)-4-ethylpyridin-2-yl)thio)-2-phenylacetamide], in assay [1] (setting [3]), the IC50 is 316 to 1000 nM. The EC50 in assay [2] was below 316 nM.
For `CCc1c(C#N)c(SC(C(N)=O)c2ccccc2)nc(N2CC[C@@H](N)C2)c1C#N` (stereo partly drawn) [Example 524, 2-((6-((R)-3-aminopyrrolidin-1-yl)-3,5-dicyano-4-ethylpyridin-2-yl)thio)-2-phenylacetamide], the “DNMT1 BioChemical (pIC50 category)” value in assay [1] (setting [4]) was “D (Category D: ≥6.5)”. Further, in assay [2], the EC50 is below 316 nM.
Consider `CCNCCN(C)c1nc(SC(C(N)=O)c2ccccc2)c(C#N)c(CC)c1C#N` (stereo not drawn) [Example 468, 2-(3,5-dicyano-4-ethyl-6-((2-(ethylamino)ethyl)(methyl)amino)pyridin-2-ylthio)-2-phenylacetamide], for which the “DNMT1 BioChemical (pIC50 category)” value in assay [1] (setting [4]) is “D (Category D: ≥6.5)”. The EC50 in assay [2] was below 316 nM.
In the same order, the values of `CCc1c(C#N)c(SC(C(N)=O)c2ccccc2)nc(N(C)CCN(C)CC)c1C#N` (stereo not drawn) [Example 483, 2-(3,5-dicyano-4-ethyl-6-((2-(ethyl(methyl)amino)ethyl)(methyl)amino)pyridin-2-ylthio)-2-phenylacetamide] are “D (Category D: ≥6.5)” and below 316 nM.
In the same order, the values of `CCc1c(C#N)c(SC(C(N)=O)c2ccc(C(F)(F)F)cc2)nc(N2CCC(N)CC2)c1C#N` (stereo not drawn) [Example 410, 2-((6-(4-aminopiperidin-1-yl)-3,5-dicyano-4-ethylpyridin-2-yl)thio)-2-(4-(trifluoromethyl)phenyl)acetamide] are “D (Category D: ≥6.5)” and 316 to 1000 nM.
Take `CCc1c(C#N)c(S[C@@H](C(N)=O)c2ccccc2)nc(N2CCC(N3CCCC3)CC2)c1C#N` [Example 405, (R)-2-((3,5-Dicyano-4-ethyl-6-(4-(pyrrolidin-1-yl)piperidin-1-yl)pyridin-2-yl)thio)-2-phenylacetamide]: in assay [1] (setting [4]), the “DNMT1 BioChemical (pIC50 category)” value is “D (Category D: ≥6.5)”. The EC50 in assay [2] was below 316 nM.
`CCc1c(C#N)c(SC(C(N)=O)c2ccncc2F)nc(N2CCCN(C)CC2)c1C#N` (stereo not drawn) [Example 248, 2-((3,5-Dicyano-4-ethyl-6-(4-methyl-1,4-diazepan-1-yl)pyridin-2-yl)thio)-2-(3-fluoropyridin-4-yl)acetamide]: the IC50 in assay [1] (setting [3]) is 316 to 1000 nM. Further, the EC50 in assay [2] is above 31600 nM.

Source of the values: patent US10975056B2 (GlaxoSmithKline Intellectual Property Development Limited, priority 2016, dated 2021).
